# Experimental data: patent US6521283B1, “Non-thrombogenic surfaces” (Biocompatibles Limited, priority 1990, dated 2003)
# Several values for one entry are separate records, joined by “and”; a condition that tells them apart may be missing. Equal values may be shown once. Marks after values point to notes of the source that are not given here.
# Experiments:
# [1] = tested on: platelets; assay: quantitative platelet adhesion test (ATP luminometry) in fresh citrated whole human blood; type: cell-based
# Protocol: A quantitative platelet adhesion test was carried out by immersing samples in fresh citrated whole human blood at room temperature for 30 minutes. Tubing samples were prepared in 3 cm lengths sealed at both ends (the blood being introduced into the sample by hypodermic needle), and constantly mixed using a spiral mixer (tests were carried out in triplicate). Blood used in this assay was obtained using the double syringe method.
# After incubation the samples were washed in isotonic phosphate buffered saline (PBS) and extracted into 1% trichloro acetate (TCA) (w/v) in 2 mM ethylene diamine tetraacetic acid (EDTA) to liberate ATP from any platelets adhering to the walls of the tubing.
# The amount of ATP present in the extractant was estimated using the LKB Pharmacia ATP assay kit and a luminometer.
# The number of platelets adhering to the samples was estimated from a standard curve using ATP levels associated with a known number of platelets.
# [2] = tested on: blood cells / platelet cells; assay: haemocompatibility of suture materials by scanning electron microscopy after incubation in whole blood; type: cell-based, human; details: braided polyester yarn suture material coated at 10 mg/ml (Example 3)
# Protocol: Samples of the braided material treated according to Example 3 were incubated in fresh, citrated whole blood as described in Example 10 above. After removal from the blood these materials were washed using PBS and prepared for scanning electron microscopy by fixing in an aliquot of the following solution:
# 83 ml 0.15 M PBS (pH 7.4) 15 ml saturated picric acid
# The samples were washed in PBS and dehydrated using 70% ethanol, followed by absolute ethanol. Finally samples were sputter coated with gold (at 30 mA for 3 minutes) and observed under the electron microscope.
# [3] = tested on: recalcified blood; assay: in-use simulation: recalcified blood incubated in catheter segments, clot formation; set-up: species or system human; details: 15 cm catheter segment, frosted region, coated according to Example 2, 37° C., 150 minutes
# Protocol: Three 15 cm segments of catheter (frosted region) coated according to Example 2 were prepared with the ends sealed using Eppendorf tubes. 40 ml of blood was collected from an adult volunteer into tri-sodium citrate (32 g/l) using the double syringe technique (the first 5 ml were discarded). 2 ml of 0.025 M calcium chloride in 0.15 M sodium chloride was added to 10 ml of citrated blood. 4 ml of recalcified blood was then added to each of the three catheter segments. The tubes were placed in a 37° C. incubator for 150 minutes. The samples were turned every 30 minutes. After this incubation the blood was drained from each of the catheters. They were then rinsed using PBS to remove any loosely bound material.
# [4] = wettability: static contact angles with distilled water drops; type: physicochemical; details: for Contact angles (°) (average) / Contact angles (°), single readings: distilled water drops after 5 minutes
# Protocol: The wettability of materials coated with DPPC according to the preceding examples was assessed by measurement of static contact angles using distilled water drops after 5 minutes in contact with the surface.
# [5] = FEP IV catheters treated at 10 mg/ml in ethanol (Example 8)
# [6] = PE (polyethylene) treated at 10 mg/ml
# [7] = PVC thoracic drain catheter, clear region, coated at 10 mg/ml (Example 2)
# [8] = PVC thoracic drain catheter, frosted region, coated at 10 mg/ml (Example 2)
# [9] = hard PVC tubing coated with 5 mg/ml solution (Example 1)
# [10] = hard PVC tubing coated with 10 mg/ml solution (Example 1)
# [11] = polypropylene hollow fibre membrane treated at 2 mg/ml (Example 7)
# [12] = polypropylene hollow fibre membrane treated at 10 mg/ml (Example 7)
# [13] = polypropylene hollow fibre membrane treated at 10 mg/ml (Example 7), includes outlier
# [14] = polystyrene petri dish spin-coated at 10 mg/ml (Example 4)
# [15] = soft PVC tubing coated with 5 mg/ml solution (Example 1)
# [16] = soft PVC tubing coated with 10 mg/ml solution (Example 1)
# [17] = PVC thoracic drain catheter coated as Ex. 2 at 10 mg/ml
# [18] = polyethylene coated as Ex. 5 at 10 mg/ml
# [19] = soft PVC tubing coated as Ex. 1
smiles,measurement,setting,value
"CCCCCCCCCCCCCCCC(=O)OC[C@H](COP(=O)([O-])OCC[N+](C)(C)C)OC(=O)CCCCCCCCCCCCCCC [DPPC, dipalmitoyl phosphatidyl choline]",% Reduction (platelet adhesion vs untreated catheters),[1]; [5],65%
same,"platelets adhered, DONOR 1",[1]; [5],1.89 platelets ×10^6 per 5 cm length of catheter
same,"platelets adhered, DONOR 2",[1]; [5],1.24 platelets ×10^6 per 5 cm length of catheter
same,"platelets adhered, DONOR 3",[1]; [5],5.84 platelets ×10^6 per 5 cm length of catheter
same,"platelets adhered, X̄ (mean of donors)",[1]; [5],2.99 platelets ×10^6 per 5 cm length of catheter
same,% Reduction (platelet adhesion vs uncoated PE),[1]; [6],94%
same,"platelets adhered, DONOR 1",[1]; [6],1.58 no. of platelets ×10^6 per 22 mm^2 area of material
same,"platelets adhered, DONOR 2",[1]; [6],3.76 no. of platelets ×10^6 per 22 mm^2 area of material
same,"platelets adhered, DONOR 3",[1]; [6],1.72 no. of platelets ×10^6 per 22 mm^2 area of material
same,"platelets adhered, X̄ (mean of donors)",[1]; [6],2.35 no. of platelets ×10^6 per 22 mm^2 area of material
same,% Reduction (platelet adhesion vs uncoated),[1]; [7],97%
same,"platelets adhered, DONOR 1",[1]; [7],0.53 platelets adhered ×10^6 per 3 cm lengths of catheters
same,"platelets adhered, DONOR 2",[1]; [7],1.38 platelets adhered ×10^6 per 3 cm lengths of catheters
same,"platelets adhered, DONOR 3",[1]; [7],0.60 platelets adhered ×10^6 per 3 cm lengths of catheters
same,"platelets adhered, X̄ (mean of donors)",[1]; [7],0.84 platelets adhered ×10^6 per 3 cm lengths of catheters
same,% Reduction (platelet adhesion vs uncoated),[1]; [8],87%
same,"platelets adhered, DONOR 1",[1]; [8],0.88 platelets adhered ×10^6 per 3 cm lengths of catheters
same,"platelets adhered, DONOR 2",[1]; [8],1.05 platelets adhered ×10^6 per 3 cm lengths of catheters
same,"platelets adhered, DONOR 3",[1]; [8],0.59 platelets adhered ×10^6 per 3 cm lengths of catheters
same,"platelets adhered, X̄ (mean of donors)",[1]; [8],0.84 platelets adhered ×10^6 per 3 cm lengths of catheters
same,platelet adhesion to coated PVC / thrombogenicity of PVC tubing,[1]; PVC tubing coated according to Example 1,large reduction in the thrombogenicity
same,% Reduction (platelet adhesion vs uncoated control),[1]; [9],94%
same,"platelets adhered, DONOR 2",[1]; [9],0.13 no. of platelets ×10^6 per 3 cm lengths of tubing
same,"platelets adhered, DONOR 3",[1]; [9],0.19 no. of platelets ×10^6 per 3 cm lengths of tubing
same,"platelets adhered, X̄ (mean of donors)",[1]; [9],0.35 no. of platelets ×10^6 per 3 cm lengths of tubing
same,"platelets adhered, DONOR 1","[1]; hard PVC tubing coated with 5 mg/ml solution (Example 1), 30 min, room temperature",0.72 no. of platelets ×10^6 per 3 cm lengths of tubing
same,% Reduction (platelet adhesion vs uncoated control),[1]; [10],97%
same,"platelets adhered, DONOR 1",[1]; [10],0.51 no. of platelets ×10^6 per 3 cm lengths of tubing
same,"platelets adhered, DONOR 2",[1]; [10],0.14 no. of platelets ×10^6 per 3 cm lengths of tubing
same,"platelets adhered, DONOR 3",[1]; [10],0.10 no. of platelets ×10^6 per 3 cm lengths of tubing
same,"platelets adhered, X̄ (mean of donors)",[1]; [10],0.25 no. of platelets ×10^6 per 3 cm lengths of tubing
same,% Reduction (platelet adhesion vs untreated),[1]; [11],91%
same,"platelets adhered, DONOR 1",[1]; [11],0.91 no. of platelets ×10^6 per 20 cm length of fibre
same,"platelets adhered, DONOR 2",[1]; [11],0.89 no. of platelets ×10^6 per 20 cm length of fibre
same,"platelets adhered, DONOR 3",[1]; [11],0.53 no. of platelets ×10^6 per 20 cm length of fibre
same,"platelets adhered, X̄ (mean of donors)",[1]; [11],0.78 no. of platelets ×10^6 per 20 cm length of fibre
same,"platelets adhered, DONOR 1",[1]; [12],0.41 no. of platelets ×10^6 per 20 cm length of fibre
same,"platelets adhered, DONOR 3",[1]; [12],0.52 no. of platelets ×10^6 per 20 cm length of fibre
same,% Reduction (platelet adhesion vs untreated),[1]; [13],56%
same,"platelets adhered, X̄ (mean of donors)",[1]; [13],3.67 no. of platelets ×10^6 per 20 cm length of fibre
same,"platelets adhered, DONOR 2","[1]; polypropylene hollow fibre membrane treated at 10 mg/ml (Example 7), result thought to be an outlier",10.08* no. of platelets ×10^6 per 20 cm length of fibre
same,% Reduction (platelet adhesion vs uncoated),[1]; [14],92%
same,"platelets adhered, DONOR 1",[1]; [14],5.54 no. of platelets ×10^6 adhered per petri dish (50 mm diameter)
same,"platelets adhered, DONOR 2",[1]; [14],3.55 no. of platelets ×10^6 adhered per petri dish (50 mm diameter)
same,"platelets adhered, DONOR 3",[1]; [14],3.08 no. of platelets ×10^6 adhered per petri dish (50 mm diameter)
same,"platelets adhered, X̄ (mean of donors)",[1]; [14],4.06 no. of platelets ×10^6 adhered per petri dish (50 mm diameter)
same,% Reduction (platelet adhesion vs uncoated control),[1]; [15],96%
same,"platelets adhered, DONOR 1",[1]; [15],0.76 no. of platelets ×10^6 per 3 cm lengths of tubing
same,"platelets adhered, DONOR 2",[1]; [15],0.72 no. of platelets ×10^6 per 3 cm lengths of tubing
same,"platelets adhered, DONOR 3",[1]; [15],0.30 no. of platelets ×10^6 per 3 cm lengths of tubing
same,"platelets adhered, X̄ (mean of donors)",[1]; [15],0.59 no. of platelets ×10^6 per 3 cm lengths of tubing
same,% Reduction (platelet adhesion vs uncoated control),[1]; [16],90%
same,"platelets adhered, DONOR 1",[1]; [16],0.97 no. of platelets ×10^6 per 3 cm lengths of tubing
same,"platelets adhered, DONOR 2",[1]; [16],1.89 no. of platelets ×10^6 per 3 cm lengths of tubing
same,"platelets adhered, DONOR 3",[1]; [16],1.25 no. of platelets ×10^6 per 3 cm lengths of tubing
same,"platelets adhered, X̄ (mean of donors)",[1]; [16],1.37 no. of platelets ×10^6 per 3 cm lengths of tubing
same,activation of platelet cells (electron microscopy),[2],platelet cells are not activated
same,adhesion of blood cells (electron microscopy),[2],adhere fewer blood cells than untreated materials
same,thrombogenicity vs untreated braided yarns,[2],appear less thrombogenic
same,drainage of blood and clot remaining in catheter,[3],blood drained easily. One small clot remained attached to the surface
same,Contact angles (°) (average),[4]; [17],24 °
same,"Contact angles (°), single readings",[4]; [17],26 ° and 19 °
same,Conclusion (wettability),[4]; [18],Wettable surface
same,Contact angles (°) (average),[4]; [18],15 °
same,"Contact angles (°), single readings",[4]; [18],12 ° and 21 °
same,Conclusion (wettability),[4]; [19],Wettable surface
same,Contact angles (°) (average),[4]; [19],8 °
same,"Contact angles (°), single readings",[4]; [19],9 ° and < 5 ° and 10 °
